From article PMC12677844, “Profiling Inhibitor Scaffolds for the Cancer Target Jumonji‐C Domain‐Containing Protein 6” (Chemmedchem, 2025)
pIC50: −log10 of the molar value. “And” between values parts separate entries of the source, which are not always exact repeats. Equal values may be shown once. Read-outs that look alike come from different tables or passages of the source.

Legend:
full‐length His6‐JMJD6 = biological target: T1, full‐length His6‐JMJD6 (Homo sapiens, UniProt Q6NYC1); assay: JMJD6 SPE–MS inhibition assay (BRD4_511–550 hydroxylation); type: biochemical; details: His6‐JMJD6 0.05 µM, 2OG 100 µM, FAS 2 µM, BRD4_511–550 1 µM, L‐ascorbic acid 100 µM, means of two independent runs (mean ± SD)
T1 construct: Isolated recombinant full‐length human JMJD6 with a N‐terminal His6‐tag; made in house; host or cells: Escherichia coli BL21 (DE3)
Method: Co‐substrate concentrations were chosen based on reported SPE–MS kinetic parameters for the JMJD6‐catalyzed BRD4_511–550 monohydroxylation reaction.^[ [56] ^] […] Since JMJD6 has a relatively high 2OG Kmapp , the JMJD6 SPE–MS inhibition assay employs a 2OG concentration which is relatively high compared to most other 2OG oxygenase SPE–MS assays, possibly more accurately reflecting cellular 2OG concentrations.^[ [59] ^, [60] ^] Likely saturating concentrations of LAA (100 µM) and FAS (2 µM) were used.
JMJD6 catalyzes oxidation of BRD4_511–550 to give multiple hydroxylation products,^[ [56] ^] an observation potentially complicating data analysis.
Isolated recombinant full‐length human JMJD6 with a N‐terminal His6‐tag was produced in Escherichia coli BL21 (DE3) cells and purified as reported.^[ [1] ^, [56] ^] […] Purified His6‐JMJD6 was stored at −78 °C; fresh aliquots were used for all JMJD6 assays.
DMSO and 2,4‐PDCA (final assay concentration: 500 µM) were used as negative and positive inhibition controls, respectively. Each reaction was performed in technical duplicates in adjacent wells of the assay plates.
Cosubstrate/cofactor stock solutions (L‐ascorbic acid, LAA: 50 mM in Milli‐Q Ultrapure grade water; 2‐oxoglutarate, 2OG: 20 mM in Milli‐Q Ultrapure grade water; ammonium iron(II) sulfate hexahydrate, FAS, (NH4)2Fe(SO4)2·6H2O: […] in 20 mM aqueous HCl diluted to 1 mM in Milli‐Q Ultrapure grade water) were freshly prepared from commercial solids (Sigma–Aldrich) on the day of the experiment. BRD4_511–550 ([…]) was synthesized by solid‐phase peptide synthesis and was purified by GL Biochem (Shanghai) Ltd (Shanghai, China). Stock solutions of BRD4_511–550 (10 mM in water) were stored at −20 °C.
The plates were centrifuged (1000 rpm, 5 s) and incubated for 15 min at ambient temperature. The substrate mixture (2 × final concentration), containing BRD4_511–550 (2 µM), LAA (200 µM), 2OG (200 µM), and FAS (4 µM) in Tris buffer (50 mM; pH 7.5), was then dispensed across the plates (25 µL per well) using the multidrop dispenser. The plates were centrifuged (1000 rpm, 5 s) and incubated for 20 min at ambient temperature. The enzyme reaction was then stopped by the addition of 10%v/v aqueous formic acid (5 μL per well) using a 16‐channel electronic pipette (ThermoFischer Scientific). The plates were then centrifuged (1000 rpm, 30 s) and analyzed by MS.
Assay samples were aspirated under vacuum for 0.4 s and then loaded onto a C4 SPE cartridge. After loading, the C4 SPE cartridge was washed with 0.1%v/v aqueous formic acid to remove nonvolatile buffer salts (5 s, 1.5 mL min^−1). BRD4_511–550 and the corresponding hydroxylated product peptides were eluted from the SPE cartridge with 0.1%v/v aqueous formic acid in 75/25v/v acetonitrile/water into the mass spectrometer (5 s, 1.6 mL min^−1); the SPE cartridge was subsequently re‐equilibrated with 0.1%v/v aqueous formic acid (1 s, 1.25 mL min^−1).
Peaks corresponding to the m/z + 5 charge states of BRD4_511–550 and the corresponding mono‐ and dihydroxylated product peptides were extracted from the ion chromatogram and integrated using RapidFire Integrator 4.3.0 (Agilent).
From the raw data, dose–response curves (normalized to the 2,4‐PDCA and DMSO controls) were obtained by nonlinear regression (GraphPad Prism 5), which were used to determine IC50 values.

JMJD6 [1] = tested on: JMJD6; design: method as in PMID 34581506; details: 10 µM JMJD6, 100 µM LUC7L2_267–278; ref [35]; read-out: reported IC50 (JMJD6, MALDI‐TOF MS) (converted); cited from earlier work
PHD2 = tested on: PHD2; design: method as in PMID 39291299; details: isolated PHD2; ref [100]; cited from earlier work
JMJD6 [2] = tested on: JMJD6; design: method as in earlier work; details: 10 µM JMJD6, 100 µM LUC7L2_267–278; ref [22]; read-out: reported IC50 (JMJD6, LC–MS) (converted); cited from earlier work

SMILES	pIC50 (full‐length His6‐JMJD6; read-out: IC50 (JMJD6, SPE–MS))	IC50 (JMJD6 [1])	also measured
O=C(O)CC(=O)C(=O)O [Oxaloacetate]	< 4.30	204 µM	
COc1ccc(C(NC(=O)c2cnc(-c3cccnn3)nc2O)c2ccc(OC)cc2)cc1 [MK‐8617]	< 4.30		
O=C(O)CCC(=O)O [Succinate]	< 4.30	261 µM	
O=C(N/N=C/c1c(O)ccc2ccccc12)c1ccncc1 [AS‐8351]	~5.16 and 5.16		
O=C(O)c1ccc(O)c2ncccc12 [IOX1]	~5.19 and 5.19	~10 µM and 10 µM	
O=C(O)CNC(=O)C1C(=O)N(C2CCCCC2)C(=O)N(C2CCCCC2)C1=O [Daprodustat]		10 µM	pIC50 (full‐length His6‐JMJD6; IC50 (JMJD6, SPE–MS)): ~4.55 and 4.55
O=C(O)CNC(=O)c1ncc(-c2cccc(Cl)c2)cc1O [Vadadustat]	~4.77 and 4.77	7 µM	
O=C(O)CCC(=O)NO [Compound 1]	~5.44 and 5.44	25 µM	
O=C(O)C(=O)N[C@H](Cc1ccccc1)C(=O)O [NOFD, N‐oxalyl‐D‐phenylalanine]	< 4.30		
CN(C)CCCNC(=O)c1ccc(-c2cc(O)c3ncccc3c2)cc1 [ML324]	~5.85 and 5.85		
O=c1c2ccccc2[se]n1-c1ccccc1 [Ebselen]	< 4.30		
O=C(O)CNC(=O)C(=O)O [NOG, N‐oxalylglycine]	< 4.30	296 µM	
O=C(O)CNC(=O)c1c(O)cc(CCc2ccccc2)n2ncnc12 [Enarodustat]	~5.92 and 5.92		pIC50 (PHD2): 6.42
C/C(=C\C(=O)O)C(=O)O [Mesaconate]	< 4.30		
O=C(O)CC[C@H](O)C(=O)O [L‐2‐Hydroxyglutarate]	< 4.30	871 µM	
O=c1c(-n2ccnn2)c[nH]n1-c1cc(N2CCOCC2)ncn1 [Molidustat]	~4.70 and 4.70	74 µM	
O=C(O)Cc1csc(=NC(=O)CS(=O)(=O)Cc2ccc3ccccc3c2)n1O [BNS]	~6.80 and 6.80		
CC(=O)C(=O)O [Pyruvate]	< 4.30	2380 µM	
CC(C)c1c(-c2ccccc2)[nH]c2c(C#N)cnn2c1=O [CPI‐455]	< 4.30		
O=C(O)c1ccnc(C(=O)O)c1 [2,4‐PDCA, pyridine‐2,4‐dicarboxylic acid]	~5.80 and 5.80	~13 µM and 13 µM	IC50 (JMJD6 [2]): ~5.4 µM and 5.4 µM
